Reference: US12251449B2, “Synthetic multidomain peptide biomaterials that inhibit inducible nitric oxide synthase” (William Marsh Rice University, priority 2019, dated 2025)
“Also recorded” adds a separate entry of the source.

Assays:
MOC1 tumors = assay: MOC orthotopic murine model of oral cancer (Example 9); details: established 4-5 mm MOC1 tumors
Protocol: MOC orthotopic murine model of oral cancer. MOC1 tumors were established by injecting 2×10^6 cells (70%:30% cells: Matrigel®Matrix) into the maxillary vestibule of the left oral cavity in C57BL/6J mice. […] Tumor growth was monitored by tumor size measurements (in diameter) taken at least two times per week using digital calipers to measure the longest dimension (single dimension). Data was then analyzed for Kaplan-Meier survival and tumor growth curves. […] Excessive tumor burden, defined as tumor diameter reaching 12 mm, tumor ulceration, or a weight loss of greater than 20% were factors that were considered for all endpoints in tumor growth and survival data.
Statistical methods. Statistical analyses were performed using Prism 7.0 (GraphPad, San Diego, CA). Statistical analyses for Kaplan-Meier survival curves were performed using the Log-rank/Mantel-Cox test. Statistical significance for tumor growth curves was determined by a two-way ANOVA test followed by selected comparison using Tukey's multiple comparison tests with multiple comparison correction. All p values were two-sided and p values less than 0.05 were considered significant.

RAW 264.7 cells = assay: Live-dead viability of RAW 264.7 cells on MDP hydrogels; type: cell-based, mouse; details: RAW macrophages on 1 wt. % hydrogel, one to three days
Protocol: Cell culture. For in vitro experiments, mouse RAW 264.7 cells (ATCC TIB-71) were grown in DMEM media supplemented with 10% Heat-Inactivated Fetal Bovine Serum (HI-FBS), L-glutamine, sodium pyruvate, and 1% penicillin-streptomycin. Cells were cultured at 37° C. with 5% CO2 and subcultured using scraping.
For 2-D culture live-dead viability studies, peptide hydrogels were pipetted into 0.4 cm^2 wells of Lab-Tek 16 well glass chamber slides (Thermo Fischer, Rochester, NY). Gels were pipetted to produce 70 μL pucks with a thickness of 1.75 mm. The gels were carefully pipetted into the bottom of each well and tapped before shear recovery to create flat gel profiles. After pipetting, the samples were allowed to shear recover for 5-10 min before adding 200 μL cell media and 10,000 RAW 264.7 cells. For each experiment time point (days 1 and 3) separate slides with duplicate gels were created. The cell media was changed every 2 days, taking care to not disturb or dislodge the gel material.
At each desired time point the following procedure was used to stain the cells for live-dead analysis. Live-dead staining solution was prepared in DPBS (Thermo Fisher Scientific, Rockford, IL) with 2 μM Calcein AM (Life Technologies), 4 μM Ethidium homodimer (Life Technologies), and 5 μg/mL Hoechst 33342 (BD Biosciences, San Jose, CA). Cell media was removed from the top of the hydrogel samples, which were then washed with PBS. Samples were then stained with 100 μL of prepared solution by incubating at 37° C. with 5% CO2 for 60 min while protected from light. After staining, the gels were removed from the glass chamber slides and placed in PBS before immediately imaging by confocal. Gels were analyzed by z-stack imaging using a Nikon A1 Confocal Microscope with a 40× water objective (405 nm blue channel laser, 488 nm green channel laser, 561 nm red channel laser). Image processing was done using NIS Elements, and Imaris Cell Counting software was used to quantify live-dead percentages.

iNOS [1] = target: T1, iNOS (Mus musculus, UniProt P29477); assay: iNOS knockdown in vitro Greiss assay; type: cell-based; details: for iNOS inhibition (in words): stimulated RAW macrophages cultured on the hydrogel
T1 construct: endogenous in cells; host or cells: RAW 264.7 murine macrophages stimulated with LPS and IFN-gamma
T1 sequence (P29477 1-1144): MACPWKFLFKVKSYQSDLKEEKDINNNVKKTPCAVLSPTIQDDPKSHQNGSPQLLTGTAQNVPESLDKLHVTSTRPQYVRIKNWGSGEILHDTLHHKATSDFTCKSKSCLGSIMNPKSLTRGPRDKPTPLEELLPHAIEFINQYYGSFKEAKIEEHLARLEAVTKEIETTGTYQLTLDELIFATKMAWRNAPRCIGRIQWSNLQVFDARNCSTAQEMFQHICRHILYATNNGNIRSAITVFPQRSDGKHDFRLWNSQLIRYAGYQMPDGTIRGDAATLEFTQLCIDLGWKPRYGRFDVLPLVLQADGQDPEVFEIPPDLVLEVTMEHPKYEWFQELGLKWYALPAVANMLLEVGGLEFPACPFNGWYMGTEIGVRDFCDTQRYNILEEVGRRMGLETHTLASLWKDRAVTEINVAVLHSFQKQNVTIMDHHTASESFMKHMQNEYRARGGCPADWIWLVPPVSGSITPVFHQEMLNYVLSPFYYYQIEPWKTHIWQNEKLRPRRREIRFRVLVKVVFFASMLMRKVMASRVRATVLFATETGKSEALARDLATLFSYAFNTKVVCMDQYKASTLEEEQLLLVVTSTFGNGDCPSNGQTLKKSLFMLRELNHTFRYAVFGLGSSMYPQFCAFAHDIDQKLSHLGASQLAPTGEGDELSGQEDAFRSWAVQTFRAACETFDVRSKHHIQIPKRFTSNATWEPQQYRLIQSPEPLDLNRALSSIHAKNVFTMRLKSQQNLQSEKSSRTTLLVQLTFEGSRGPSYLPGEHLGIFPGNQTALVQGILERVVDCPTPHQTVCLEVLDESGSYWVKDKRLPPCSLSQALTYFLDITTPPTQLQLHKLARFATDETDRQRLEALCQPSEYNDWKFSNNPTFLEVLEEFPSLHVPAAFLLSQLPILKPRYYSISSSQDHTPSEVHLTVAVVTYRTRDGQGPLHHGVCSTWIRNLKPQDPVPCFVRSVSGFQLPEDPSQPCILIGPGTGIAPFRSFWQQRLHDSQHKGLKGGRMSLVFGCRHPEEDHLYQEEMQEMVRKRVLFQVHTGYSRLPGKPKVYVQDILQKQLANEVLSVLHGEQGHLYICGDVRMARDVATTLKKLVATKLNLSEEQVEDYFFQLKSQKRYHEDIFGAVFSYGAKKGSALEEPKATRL
Protocol: iNOS knockdown in vitro Greiss assay. To evaluate the iNOS knockdown efficacy of various materials, the following procedure was used to test % iNOS inhibition of RAW 264.7 cells stimulated with Lipopolysaccharide (LPS, Thermo Fisher Scientific, Rockford, IL) and recombinant mouse IFN-7 (Biolegend, San Diego, CA). RAW macrophages were prepared at a stock concentration of 2.5×10^6 cells/mL, and plated at 2.5×10^5 cells per well in 24-well plates. For samples testing the efficacy of 2-D surface cell culture, 200 μL of MDP hydrogels was applied to evenly coat the surface of each well before addition of cells. Each experimental condition was performed in triplicate. The following controls were included in every experiment, 1) media alone, 2) stimulated cells alone, and 3) unstimulated cells alone. To each well, stimulation media or normal media was then added based on experimental requirement. Stimulation media was prepared with LPS (final concentration 1 μg/mL) and IFN-7 (final concentration 100 U/mL). For samples testing material efficacy in solution (e.g. free L-NIL), after 6 hrs of incubation at 37° C. with 5% CO2 the desired concentration of inhibitor was added to achieve a range of concentrations between 1 μM and 1 mM.
In all cases after 24 hours from time of stimulation, samples of cell media were collected from each well after mixing media by pipetting before collection. Media samples were placed into a 96-well plate and centrifuged at 5000 rpm for 10 min. Supernatants were removed and placed in a new clear 96-well plate, and samples were immediately analyzed using a colorimetric Greiss Assay (Cayman Chemical, Ann Arbor, MI) to assess nitrite levels (Bryan & Grisham, 2007). Color was allowed to develop for 10 min following addition of Greiss reagents, and absorbance was read at 540 nm on a plate reader. Percent iNOS inhibition for each sample was calculated by first subtracting the absorbance of the media-only baseline, and then converting to a percent of maximum nitrite signal as determined by the internal standard of stimulated cells alone.

[2] = reported in Aulisa et al., 2009; cited from earlier work
iNOS [3] = assay: Anti-nitrotyrosine immunostaining of subcutaneously injected hydrogels; type: in vivo, mice; details: subcutaneous implants, 3 and 7 days post injection
Protocol: Subcutaneous experiments and histology. C57BL/6J female mice were purchased from The Jackson Laboratory at age 8-12 weeks for subcutaneous characterization experiments. Mice were housed under specific pathogen-free conditions in standard temperature and lighting conditions with free access to food and water, and experiments were conducted with approval of the Institutional Animal Care and Use Committee (IACUC) at Rice University and according to NIH guidelines. Mice were injected with 100 μL MDP hydrogels in each of four separate sites in the subcutaneous space of the dorsal flank after the skin was shaved and sterilized with alcohol. At days 3, 7, 14, and 21 the mice were euthanized and the dorsal skin around the entire implant was removed, fixed overnight in 10% neutral buffered formalin, processed and paraffin embedded, and finally sectioned at […] thickness for staining using standard Masson's trichrome or hematoxylin and eosin (H&E) procedures, as well as immunohistochemical analyses (e.g., anti-nitrotyrosine IHC, or α-SMA blood vessel analysis).
Immunohistochemistry staining was performed on hydrogel implant tissue sections to further study in vivo properties of the L-NIL-MDP compared to related cationic MDPs. Anti-nitrotyrosine immunostaining was used to assess relative levels of nitrosylation of tyrosine within and around the subcutaneously injected hydrogel implants as a marker of iNOS inhibition (FIGS. 7A-H). It is known that the formation of nitric oxide (NO) and other nitrogen oxides in vivo can lead to observable post-translation modifications of peptides and proteins (Ischiropoulos, 2003). For example, surface-exposed 3-nitrotyrosine can be used as a marker of cell or tissue inflammation and damage by reactive nitrogen and oxygen species such as NO (Ahsan, 2013). The higher the local levels of iNOS activity, the greater should be the density of nitrosylated tyrosine. Therefore, visualization of nitrotyrosine levels by targeted antibodies can serve as a general indication of in vivo iNOS activity, or in the case of the L-NIL-MDP, local iNOS inhibition.

VEGF = assay: Serum VEGF ELISA in mice bearing B16-F0 melanoma tumors; type: in vivo; details: 5 days after single 100 μL intratumoral injection
Protocol: Evaluation of in vivo VEGF reduction using murine B16-F0 melanoma tumor model. C57BL/6J male mice were purchased from The Jackson Laboratory. […] All experiments were performed with approval of IACUC at Baylor College of Medicine (BCM) and followed established protocols. B16-F0 melanoma cell line was purchased from American Type Culture Collection (ATCC) and maintained according to manufacturer instructions (DMEM high-glucose with 10% fetal bovine serum and 1% penicillin/streptomycin). C57BL/6J mice were injected subcutaneously (s.c.) with 3×10^5 B16-F0 cells in a single flank. Once tumors became palpable (day 7 post-inoculation) mice were injected intratumorally (i.t.) with either vehicle buffer control Hank's Balanced Salt Solution (HBSS), free L-NIL dissolved in HBSS at 20 mM, K2-MDP hydrogel at 1 wt. % (5.6 mM peptide), or L-NIL-MDP hydrogel at 1 wt. % (5.2 mM peptide, or approximately 20 mM L-NIL functional groups). All injections were done using 100 μL total injection volume.
Mice were euthanized 5 days following i.t. injections and tumor/blood were collected. […] VEGF quantification of undiluted serum was performed using a mouse VEGF Quantikine ELISA kit (R&D Systems, Minneapolis, MN) following manufacturer's instructions. […] Statistical differences were evaluated using Tukey's multiple comparisons test. […]

[4] = CDN drug release kinetics from hydrogels; type: physicochemical
Protocol: Drug release kinetics. For release kinetics studies of CDN release from various hydrogel formulations, aliquots of CDN-loaded gel (30 μL each) were deposited into 96 well Falcon® flat bottom plates (Becton Dickinson Labware, Franklin Lakes, NJ). 30 μL gel was pipetted to generate a cylindrical puck in each well for each experiment. The pipetted gels were allowed to shear recover for approximately 5-10 min before adding 200 μL of the relevant buffer to the top of the gels (1× HBSS for all MDPs, 1× DPBS for collagen, Matrigel, 1× HBSS with 0.1 M CaCl2) for alginate, etc. according to the gelation requirements of the material). The addition of buffer was defined as t=0 for the beginning of release kinetics experiments. Table 1 summarizes the material conditions and preparation methods used for various comparative CDN delivery kinetics studies.
A Nanodrop 2000C Spectrophotometer (Thermo Scientific) was used to measure drug release by UV absorbance at 259 nm for CDN ML RR-S2 CDA, using an extinction coefficient of 24,000 M^−1cm^−1 (259 nm). Absorbance measurements were obtained by removing […] from the top of the liquid buffers above the loaded gels, over time measuring the increase in absorbance. Over the course of the first 24 hours, release of CDN was measured usually every 1-2 hours and converted to total percent released, with additional measurements also made every 24 hours for up to a week to establish when equilibrium had been reached.

Row | Compound | cell attachment, survival and proliferation (in words) (RAW 264.7 cells) | iNOS inhibition (in words) (iNOS [1]) | nitrotyrosine staining intensity (in words) (iNOS [3]) | CDN release profile (in words) [4] | further results
1 | Nc1ncnc2c1ncn2[C@@H]1O[C@@H]2COP(O)(=S)O[C@@H]3C(O)[C@@H](COP(O)(=S)O[C@H]2[C@H]1O)O[C@H]3n1cnc2c(N)ncnc21 (stereo partly shown) [CDN, ML RR-S2 CDA] |  |  |  |  | mice surviving to the 150-day endpoint (MOC1 tumors; single intratumoral injection): 20%
2 | CC(=O)N[C@@H](CCCCN)C(=O)N[C@@H](CCCCN)C(=O)N[C@@H](CO)C(=O)N[C@@H](CC(C)C)C(=O)N[C@@H](CO)C(=O)N[C@@H](CC(C)C)C(=O)N[C@@H](CO)C(=O)N[C@@H](CC(C)C)C(=O)N[C@@H](CO)C(=O)N[C@@H](CC(C)C)C(=O)N[C@@H](CO)C(=O)N[C@@H](CC(C)C)C(=O)N[C@@H](CO)C(=O)N[C@@H](CC(C)C)C(=O)N[C@@H](CCCCN)C(=O)N[C@@H](CCCCN)C(N)=O [K2-MDP, K2(SL)6K2] | highest degrees of cell attachment and proliferation | moderate | moderate |  | free L-NIL concentration giving a comparable level of iNOS inhibition (iNOS [1]; hydrogel surface culture compared with free L-NIL in solution): < 10 µM; iNOS inhibitory activity, fold less than L-NIL-MDP (iNOS [1]; in terms of comparison to free L-NIL concentration): ~10 fold; median survival (MOC1 tumors; single 30 μl intratumoral injection): 46 days; storage modulus (G′) [2]: 200-500 Pa
3 | CC(=N)NCCCC[C@H](N)C(=O)O [L-NIL, N6-(1-iminoethyl)-L-lysine, reference compound] |  |  |  |  | reduction of systemic VEGF levels (in words) (VEGF): not achieved
4 | Ac-EESLSLSLSLSLSLEE-NH2 [E2-MDP, E2(SL)6E2] | poorer cell survival and proliferation rates | little to no iNOS inhibition |  | nearly identical release profiles to each other | 
5 | Ac-RRSLSLSLSLSLSLRR-NH2 [R2-MDP, R2(SL)6R2] | highest degrees of cell attachment and proliferation | little to no iNOS inhibition; also recorded: lowest iNOS inhibition | highest nitrotyrosine staining |  | 
6 | O5(SL)6O5 [05-MDP] |  |  |  | nearly identical release profiles to each other | 
